Laboratory results from patent US20090029992A1, “SUBSTITUTED PYRAZOLE COMPOUNDS” (priority 2007, published 2009).

Tests used:
[1] = biological target: T1, recombinant Aurora A (Homo sapiens, UniProt O14965); assay: Aurora A (Aurora 2) inhibition assay, Z'-Lyte kinase assay; type: biochemical; conditions: ATP 10 μM, 1 h
T1 construct: purchased Upstate, Lake Placid, N.Y
T1 sequence (O14965 1-403): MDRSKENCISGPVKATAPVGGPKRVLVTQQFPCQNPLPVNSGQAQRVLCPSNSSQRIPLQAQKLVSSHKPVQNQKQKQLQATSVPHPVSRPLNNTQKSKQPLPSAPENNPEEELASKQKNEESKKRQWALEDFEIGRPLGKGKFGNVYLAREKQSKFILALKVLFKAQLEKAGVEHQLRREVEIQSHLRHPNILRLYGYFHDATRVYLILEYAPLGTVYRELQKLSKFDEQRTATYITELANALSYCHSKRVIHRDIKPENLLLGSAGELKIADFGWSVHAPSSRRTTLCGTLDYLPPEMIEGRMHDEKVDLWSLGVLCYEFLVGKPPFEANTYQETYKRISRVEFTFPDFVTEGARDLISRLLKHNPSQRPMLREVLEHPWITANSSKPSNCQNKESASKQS
Protocol: Compounds were tested for their potency against recombinant Aurora A (Upstate, Lake Placid, N.Y.) using the PanVera Z′-Lyte kinase assay kit—Ser/Thr 1 peptide (Invitrogen, Carlsbad, Calif.). Assays were carried out in kinase assay buffer (50 mM HEPES, pH 7.5, 10 mM MgCl2, 5 mM EGTA, 0.05% Brij-35, 2 mM DTT). Test compounds were initially dissolved in DMSO at 100× the highest tested concentration, then serially diluted to 4× test concentrations in kinase assay buffer. Next, Aurora A (final concentration 200-500 ng/mL), Z′-Lyte Ser/Thr 1 peptide (final concentration 2 μM) and ATP (final concentration 10 μM) were added according to the manufacturer's instructions. Assays were carried out in half-area 96-well white polystyrene assay plates (Corning, Corning, N.Y.) in a final volume of 20 μl. The reaction was allowed to proceed for 1 h at room temperature in the dark, at which point the development reagent and stop reagent were added according to the manufacturer's instructions. Coumarin (Ex. 400 nm, Em. 465 nm) and fluorescein (Ex. 400 nm, Em. 565 nm) fluorescence values were measured on a SpectraFluor Plus plate reader (Tecan, Durham, N.C.). The emission ratio (coumarin/fluorescein) was determined and used to calculate the percent phosphorylation for each well. Wells containing substrate but no kinase and wells containing a phosphopeptide control were used to set 0% and 100% phosphorylation values, respectively. Typically 20-40% of the substrate was phosphorylated in wells without inhibitor. Dose-response curves of relative Aurora A activity vs. inhibitor concentration were plotted with Grafit (Erithacus Software, Horley, Surrey, UK).

[2] = biological target: T2, N-terminal His-tagged human Src (Homo sapiens, UniProt P12931); assay: Src kinase inhibition assay (33P-ATP filter assay); type: biochemical; conditions: 40 minutes at room temperature
T2 construct: His (N); purchased Upstate USA Inc, 706 Forest Street, Charlottesville, Va
T2 sequence (P12931 whole entry): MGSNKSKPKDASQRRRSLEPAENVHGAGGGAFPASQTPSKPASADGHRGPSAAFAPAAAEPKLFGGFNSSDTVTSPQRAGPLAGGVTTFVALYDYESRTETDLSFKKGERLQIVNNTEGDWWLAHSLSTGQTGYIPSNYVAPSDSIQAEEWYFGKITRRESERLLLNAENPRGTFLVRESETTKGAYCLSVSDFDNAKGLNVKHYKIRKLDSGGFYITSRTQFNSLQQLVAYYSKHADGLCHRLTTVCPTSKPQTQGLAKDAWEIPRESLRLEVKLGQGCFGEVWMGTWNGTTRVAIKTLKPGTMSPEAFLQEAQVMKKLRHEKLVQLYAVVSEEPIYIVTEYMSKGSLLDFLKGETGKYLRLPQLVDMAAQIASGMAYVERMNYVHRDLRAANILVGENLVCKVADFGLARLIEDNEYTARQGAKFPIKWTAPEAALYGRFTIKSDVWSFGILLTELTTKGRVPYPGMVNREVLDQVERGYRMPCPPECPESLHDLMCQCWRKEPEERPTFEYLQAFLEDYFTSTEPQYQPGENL

[3] = biological target: T3, N-terminal His6-tagged recombinant human KDR, residues 790-end (Homo sapiens, UniProt P35968); assay: KDR kinase inhibition assay (33P-ATP filter assay); type: biochemical; conditions: 40 minutes at room temperature
T3 construct: recombinant human KDR, residues 790-end; His6 (N); purchased Upstate USA Inc, 706 Forest Street, Charlottesville, Va
T3 sequence (P35968 790-1356 limits assumed): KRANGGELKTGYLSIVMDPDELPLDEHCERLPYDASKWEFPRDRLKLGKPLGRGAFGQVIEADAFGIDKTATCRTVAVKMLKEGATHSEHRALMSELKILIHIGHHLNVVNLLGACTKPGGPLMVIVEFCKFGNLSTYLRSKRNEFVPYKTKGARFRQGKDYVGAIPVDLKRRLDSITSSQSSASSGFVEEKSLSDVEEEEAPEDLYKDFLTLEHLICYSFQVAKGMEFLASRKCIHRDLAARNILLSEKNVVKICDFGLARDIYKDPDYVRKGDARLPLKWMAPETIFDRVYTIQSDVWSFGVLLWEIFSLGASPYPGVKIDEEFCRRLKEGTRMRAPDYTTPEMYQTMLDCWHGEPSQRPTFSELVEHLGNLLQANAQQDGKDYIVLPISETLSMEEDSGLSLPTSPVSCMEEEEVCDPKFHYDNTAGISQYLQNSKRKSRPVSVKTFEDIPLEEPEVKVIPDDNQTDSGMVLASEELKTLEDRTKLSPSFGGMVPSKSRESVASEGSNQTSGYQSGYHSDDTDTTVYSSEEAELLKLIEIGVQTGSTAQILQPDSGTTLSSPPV
Outline: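 Radiometric filter assay: reaction started with Mg acetate (10 mM)/[γ-33P]ATP mix, run 40 min at room temperature in 8 mM MOPS pH 7.0 with 0.2 mM EDTA, MBP substrate (0.33 mg/mL) and recombinant KDR 790-end (5-10 mU). Phosphate incorporation by scintillation counting of P30 filtermats, compared with uninhibited reactions.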

[4] = system: HCT116 cells; assay: Whole cell cytotoxicity assay, Sulforhodamine B; type: cell-based; conditions: Homo sapiens, HCT-116, HCT116, 96 hours incubation, SRB
Outline: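 HCT116 cells (500/well) in DMEM/10% FBS/2 mM glutamine were preincubated 24 h, then exposed to compound for 96 h at 37 °C, 5% CO2, in duplicate. Cells were fixed with TCA and stained with sulforhodamine B (A570). GI50, TGI and LC50 were derived relative to a time-zero plate and an untreated control.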

Cc1cc(Nc2cc(N3CCN(C)CC3)nc(-c3ccc(F)cc3F)n2)n[nH]1 [Example 172, 2-(2,4-difluorophenyl)-N-(5-methyl-1H-pyrazol-3-yl)-6-(4-methylpiperazin-1-yl)pyrimidin-4-amine]
IC50 ([1]; group with IC50 greater than 100 nM): ≤ 1000 nM
IC50 [2]: ≤ 100 nM
IC50 [3]: ≤ 100 nM
GI50 ([4]; read-out: GI50 HCT116 cell growth): ≤ 1000 nM

Cc1cc(Nc2cc(N3CCN(C)CC3)nc(-c3ccccc3F)n2)n[nH]1 [Compound 34, 2-(2-fluorophenyl)-N-(5-methyl-1H-pyrazol-3-yl)-6-(4-methylpiperazin-1-yl)pyrimidin-4-amine]
IC50 [1]: ≤ 100 nM
IC50 [2]: ≤ 100 nM
IC50 [3]: ≤ 100 nM
IC50 ([4]; read-out: IC50 values in this assay (HCT116 cell growth)): 1000 to 10000 nM
